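Abbreviation: GI50, concentration required for 50% inhibition of growth. TGI: concentration producing complete growth inhibition.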
What was measured:
Assay in all cases: NCI tumour cell line growth inhibition, 384-well format
NCI-H322M lung = system: NCI-H322M lung
MDA-MB-468 breast = system: MDA-MB-468 breast
RXF 393 renal = system: RXF 393 renal
NCI-H460 NSCLC = system: NCI-H460 NSCLC
SK-MEL-5 melanoma = system: SK-MEL-5 melanoma
NCI-H226 lung = system: NCI-H226 lung
MCF7 breast = system: MCF7 breast
CCRF-CEM leukemia = system: CCRF-CEM leukemia
EKVX NSCLC = system: EKVX NSCLC
MALME-3M melanoma = system: MALME-3M melanoma
LOX IMVI melanoma = system: LOX IMVI melanoma
SK-OV-3 ovarian = system: SK-OV-3 ovarian
DU-145 prostate = system: DU-145 prostate
UACC-62 melanoma = system: UACC-62 melanoma
MDA-MB-435 melanoma = system: MDA-MB-435 melanoma
HCT-15 colon = system: HCT-15 colon
SW-620 colon = system: SW-620 colon
SF-539 CNS = system: SF-539 CNS
OVCAR-5 ovarian = system: OVCAR-5 ovarian
RPMI-8226 leukemia = system: RPMI-8226 leukemia
COLO 205 colon = system: COLO 205 colon
NCI/ADR-RES ovarian = system: NCI/ADR-RES ovarian
HOP-62 NSCLC = system: HOP-62 NSCLC
K-562 leukemia = system: K-562 leukemia
HCC-2998 colon = system: HCC-2998 colon
SK-MEL-28 melanoma = system: SK-MEL-28 melanoma
T-47D breast = system: T-47D breast
IGROV1 ovarian = system: IGROV1 ovarian
OVCAR-8 ovarian = system: OVCAR-8 ovarian
U251 glioblastoma = system: U251 glioblastoma
KM12 colon = system: KM12 colon
CAKI-1 renal = system: CAKI-1 renal
HT29 colon = system: HT29 colon
UACC-257 melanoma = system: UACC-257 melanoma
HOP-92 NSCLC = system: HOP-92 NSCLC
SNB-75 CNS = system: SNB-75 CNS
M14 melanoma = system: M14 melanoma
NCI-H522 lung = system: NCI-H522 lung
OVCAR-4 ovarian = system: OVCAR-4 ovarian
SF-268 CNS = system: SF-268 CNS
786-0 renal = system: 786-0 renal
ACHN renal = system: ACHN renal
HS 578T breast = system: HS 578T breast
MDA-MB-231 breast = system: MDA-MB-231 breast
PC-3 prostate = system: PC-3 prostate
MOLT-4 leukemia = system: MOLT-4 leukemia
OVCAR-3 ovarian = system: OVCAR-3 ovarian
A498 renal = system: A498 renal
A549 NSCLC = system: A549 NSCLC
SN12C renal = system: SN12C renal
SNB-19 CNS = system: SNB-19 CNS
UO-31 renal = system: UO-31 renal
HL-60(TB) leukemia = system: HL-60(TB) leukemia
NCI-H23 lung = system: NCI-H23 lung
BT-549 breast = system: BT-549 breast
HCT-116 colon = system: HCT-116 colon
SF-295 CNS = system: SF-295 CNS
TK-10 renal = system: TK-10 renal

Compound: C1=C/COCc2cc(ccc2OCCN2CCCC2)Nc2nccc(n2)-c2ccc(o2)COC/1
- GI50 (NCI-H322M lung): 1320 nM
- TGI (NCI-H322M lung): 3510 nM
- GI50 (MDA-MB-468 breast): 1140 nM
- TGI (MDA-MB-468 breast): 2370 nM
- GI50 (RXF 393 renal): 1250 nM
- TGI (RXF 393 renal): 2570 nM
- GI50 (NCI-H460 NSCLC): 792 nM
- TGI (NCI-H460 NSCLC): 2270 nM
- GI50 (SK-MEL-5 melanoma): 1030 nM
- TGI (SK-MEL-5 melanoma): 2260 nM
- GI50 (NCI-H226 lung): 1210 nM
- TGI (NCI-H226 lung): 4180 nM
- GI50 (MCF7 breast): 563 nM
- TGI (MCF7 breast): 1980 nM
- GI50 (CCRF-CEM leukemia): 1530 nM
- TGI (CCRF-CEM leukemia): 2920 nM
- GI50 (EKVX NSCLC): 1490 nM
- TGI (EKVX NSCLC): 3370 nM
- GI50 (MALME-3M melanoma): 1060 nM
- TGI (MALME-3M melanoma): 2270 nM
- GI50 (LOX IMVI melanoma): 892 nM
- TGI (LOX IMVI melanoma): 2180 nM
- GI50 (SK-OV-3 ovarian): 758 nM
- TGI (SK-OV-3 ovarian): 2880 nM
- GI50 (DU-145 prostate): 1560 nM
- TGI (DU-145 prostate): 10500 nM
- GI50 (UACC-62 melanoma): 798 nM
- TGI (UACC-62 melanoma): 2060 nM
- GI50 (MDA-MB-435 melanoma): 1470 nM
- TGI (MDA-MB-435 melanoma): 4090 nM
- GI50 (HCT-15 colon): 950 nM
- TGI (HCT-15 colon): 3230 nM
- GI50 (SW-620 colon): 2440 nM
- TGI (SW-620 colon): 8150 nM
- GI50 (SF-539 CNS): 1610 nM
- TGI (SF-539 CNS): 3000 nM
- GI50 (OVCAR-5 ovarian): 590 nM
- TGI (OVCAR-5 ovarian): 4100 nM
- GI50 (RPMI-8226 leukemia): 1790 nM
- TGI (RPMI-8226 leukemia): 3220 nM
- GI50 (COLO 205 colon): 1480 nM
- TGI (COLO 205 colon): 3920 nM
- GI50 (NCI/ADR-RES ovarian): 1970 nM
- TGI (NCI/ADR-RES ovarian): 4000 nM
- GI50 (HOP-62 NSCLC): 1200 nM
- TGI (HOP-62 NSCLC): 2960 nM
- GI50 (K-562 leukemia): 1390 nM
- TGI (K-562 leukemia): 4120 nM
- GI50 (HCC-2998 colon): 1270 nM
- TGI (HCC-2998 colon): 2830 nM
- GI50 (SK-MEL-28 melanoma): 1430 nM
- TGI (SK-MEL-28 melanoma): 3000 nM
- GI50 (T-47D breast): 613 nM
- TGI (T-47D breast): 2430 nM
- GI50 (IGROV1 ovarian): 433 nM
- TGI (IGROV1 ovarian): 1900 nM
- GI50 (OVCAR-8 ovarian): 1680 nM
- TGI (OVCAR-8 ovarian): 4270 nM
- GI50 (U251 glioblastoma): 1920 nM
- TGI (U251 glioblastoma): 4790 nM
- GI50 (KM12 colon): 325 nM
- TGI (KM12 colon): 1920 nM
- GI50 (CAKI-1 renal): 452 nM
- TGI (CAKI-1 renal): 2340 nM
- GI50 (HT29 colon): 1290 nM
- TGI (HT29 colon): 2820 nM
- GI50 (UACC-257 melanoma): 1460 nM
- TGI (UACC-257 melanoma): 2800 nM
- GI50 (HOP-92 NSCLC): 1570 nM
- TGI (HOP-92 NSCLC): 5460 nM
- GI50 (SNB-75 CNS): 1060 nM
- TGI (SNB-75 CNS): 2270 nM
- GI50 (M14 melanoma): 838 nM
- TGI (M14 melanoma): 3050 nM
- GI50 (NCI-H522 lung): 1090 nM
- TGI (NCI-H522 lung): 2400 nM
- GI50 (OVCAR-4 ovarian): 2000 nM
- TGI (OVCAR-4 ovarian): 5100 nM
- GI50 (SF-268 CNS): 256 nM
- TGI (SF-268 CNS): 964 nM
- GI50 ([…]-0 renal): 1520 nM
- TGI (786-0 renal): 4970 nM
- GI50 (ACHN renal): 672 nM
- TGI (ACHN renal): 11400 nM
- GI50 (HS 578T breast): 1540 nM
- TGI (HS 578T breast): 2970 nM
- GI50 (MDA-MB-231 breast): 1840 nM
- TGI (MDA-MB-231 breast): 9870 nM
- GI50 (PC-3 prostate): 1490 nM
- TGI (PC-3 prostate): 4880 nM
- GI50 (MOLT-4 leukemia): 1020 nM
- TGI (MOLT-4 leukemia): 2190 nM
- GI50 (OVCAR-3 ovarian): 1330 nM
- TGI (OVCAR-3 ovarian): 3230 nM
- GI50 (A498 renal): 710 nM
- TGI (A498 renal): 4220 nM
- GI50 (A549 NSCLC): 1250 nM
- TGI (A549 NSCLC): 4060 nM
- GI50 (SN12C renal): 587 nM
- TGI (SN12C renal): 1890 nM
- GI50 (SNB-19 CNS): 2580 nM
- TGI (SNB-19 CNS): 10600 nM
- GI50 (UO-31 renal): 1640 nM
- TGI (UO-31 renal): 3850 nM
- GI50 (HL-60(TB) leukemia): 479 nM
- TGI (HL-60(TB) leukemia): 1680 nM
- GI50 (NCI-H23 lung): 879 nM
- TGI (NCI-H23 lung): 2190 nM
- GI50 (BT-549 breast): 1720 nM
- TGI (BT-549 breast): 3210 nM
- GI50 (HCT-116 colon): 852 nM
- TGI (HCT-116 colon): 10400 nM
- GI50 (SF-295 CNS): 2050 nM
- TGI (SF-295 CNS): 4490 nM
- GI50 (TK-10 renal): 2390 nM
- TGI (TK-10 renal): 9400 nM
